Assay results: US11492346B2, “Benzisoxazole sulfonamide derivatives” (Pfizer Inc., priority 2019, dated 2022)
Where two headings read alike, the source gives them in different places.

What was measured:
[1] = target: KAT6A (Homo sapiens (Human), UniProt Q92794); assay: KAT assay (SAMDI mass spectrometry), KAT6A; type: biochemical;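 note: Baculovirus-expressed KAT6A acetylating histone H3 (1-21) peptide (2 µM), 30-60 min at room temperature, % product conversion fitted to Morrison equation for tight-binding competitive inhibitors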
Protocol: (§1) Prepare 10 mM stock solutions in 100% DMSO from solid material • 2. Serial dilute 10 mM, 1 mM or 0.1 mM compound stocks 3-fold in 100% DMSO for 11-point dose response
(§2) Prepare 1× assay buffer containing 10 mM Tris HCL pH 8.0, 2.5 mM NaCl, 0.5 mM EDTA, 0.005% BSG and 0.02% Tween-20 • 2. Dilute Histone peptide (CPC Scientific) and AcCoA (Sigma) together in assay buffer to 2×. • 3. Dilute KAT enzyme in assay buffer to 2×.
(§3) Enzyme reaction • 1. Final reaction conditions for each KAT assay in a 20 ul assay reaction volume: • i. KAT5 25 nM, 1 uM AcCoA, 2 uM H4 1-21 peptide, 30-minute reaction • ii. KAT6A 15 nM, 1 uM AcCoA, 2 uM H3 1-21 peptide, 45-minute reaction • iii. KAT6B 25 nM, 1 uM AcCoA, 2 uM H3 1-21 peptide, 60-minute reaction • iv. KAT7 12.5 nM, 1 uM AcCoA, 2 uM H3 1-21 peptide, 45-minute reaction • v. KAT8 15 nM, 1 uM AcCoA, 2 uM H3 1-21 peptide, 45-minute reaction • 2. Add 0.5 ul of diluted compound to the assay plate (384-well V-bottom polypropylene plates) or 0.5 ul of DMSO for control wells. • 3. Add 10 ul of 2× Histone peptide/2×AcCoA mix to the assay plate. • 4. Add 10 ul of 2× enzyme to the assay plate. • 5. Stop the reaction after the indicated time with the addition of 2 ul of 5% formic acid • 6. Each reaction was analyzed using self-assembled monolayer desorption/ionization time-of-flight mass spectrometry (Mrksich, Milan (2008) Mass Spectrometry of Self-Assembled Monolayers: A New Tool for Molecular Surface Science ACS Nano 2008 2 (1), 7-18; SAMDI Tech, Inc. (Chicago, Ill.)). • 7. Area under the curve (AUC) for both substrate and product peaks was determined for KAT5 at M.W. 2561 [Substrate+H]^+ and 2603 [Product+H]^+ with a +/−1 Da tolerance, respectively • 8. Area under the curve (AUC) for both substrate and product peaks was determined for KAT6a, KAT6B, KAT7 and KAT8 at M.W. 2723 [Substrate+H]^+ and 2765 [Product+H]^+ with a +/−1 Da tolerance, respectively. […] Percent conversion to product was calculated by: AUCProduct/(AUCsubstrate+AUCProduct).
(§4) IC50 values were determined by fitting the % conversion at each inhibitor concentration to the 4-parameter IC50 equation using Pfizer proprietary curve fitting software. • 2. Ki values were determined by fitting the % conversion at each inhibitor concentration to the Morrison equation for tightbinding competitive inhibitors using Pfizer proprietary curve fitting software.
(§5) KAT enzymes were expressed using a baculovirus expression system and purified at Pfizer, La Jolla. […] Acetyl coenzyme A was purchased from Sigma-Aldrich (St. Louis, Mo.). All other biochemical reagents were purchased from Sigma-Aldrich or ThermoFisher Scientific (Waltham, Mass.).
(§6) KAT assays were performed at room temperature in assay buffer containing 1 μM AcCoA, 2 μM histone peptide, 10 mM Tris HCL pH 8.0, 2.5 mM NaCl, 0.5 mM EDTA, 0.005% BSG and 0.02% Tween-20. 10 ul of 2× Histone peptide/AcCoA mix was added to a 384-well V-bottom polypropylene assay plate containing 0.5 ul of serially diluted test compound in 100% dimethyl sulfoxide (DMSO). To start the reaction, 10 ul of 2× enzyme solution was added to the assay plate. KAT assays were terminated after 30-60 minutes with the addition of 2 ul of 5% formic acid. All assays used histone H3 (1-21) peptide except for the KAT5 assay which used histone H4 (1-21) peptide. The final enzyme concentration for each KAT was as follows: KAT5, 25 nM; KAT6A, 15 nM; KAT6B, 25 nM; KAT7, 12.5 nM; KAT8 15 nM. Each reaction was analyzed using self-assembled monolayer desorption/ionization time-of-flight mass spectrometry (Mrksich, Milan (2008) Mass Spectrometry of Self-Assembled Monolayers: A New Tool for Molecular Surface Science ACS Nano 2008 2 (1), 7-18; SAMDI Tech, Inc. (Chicago, Ill.)).
(§7) Area under the curve (AUC) for both substrate and product peaks was determined for KAT5 at M.W. 2561 [Substrate+H]^+ and 2603 [Product+H]^+ with a +/−1 Da tolerance, respectively.

[2] = target: KAT7 (Homo sapiens (Human), UniProt O95251); assay: KAT assay (SAMDI mass spectrometry), KAT7; type: biochemical;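 note: Baculovirus-expressed enzyme acetylating a histone peptide at room temperature, percent conversion from product and substrate peak areas, Ki from a Morrison tight-binding competitive fit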
Protocol: as §1, §2, §3, §4, §5, §6, §7

[3] = KAT6a Ki at 1 μM AcCoA, 1 μM AcCoA
[4] = KAT6a Ki at 10 μM AcCoA, 10 μM AcCoA
[5] = read-out: KAT6a Ki at 1 μM AcCoA, 1 μM AcCoA
[6] = read-out: KAT7 Ki at 1 μM AcCoA
[7] = read-out: KAT6a Ki at 10 μM AcCoA, 10 μM AcCoA

KAT6A, sequence (Q92794 whole entry): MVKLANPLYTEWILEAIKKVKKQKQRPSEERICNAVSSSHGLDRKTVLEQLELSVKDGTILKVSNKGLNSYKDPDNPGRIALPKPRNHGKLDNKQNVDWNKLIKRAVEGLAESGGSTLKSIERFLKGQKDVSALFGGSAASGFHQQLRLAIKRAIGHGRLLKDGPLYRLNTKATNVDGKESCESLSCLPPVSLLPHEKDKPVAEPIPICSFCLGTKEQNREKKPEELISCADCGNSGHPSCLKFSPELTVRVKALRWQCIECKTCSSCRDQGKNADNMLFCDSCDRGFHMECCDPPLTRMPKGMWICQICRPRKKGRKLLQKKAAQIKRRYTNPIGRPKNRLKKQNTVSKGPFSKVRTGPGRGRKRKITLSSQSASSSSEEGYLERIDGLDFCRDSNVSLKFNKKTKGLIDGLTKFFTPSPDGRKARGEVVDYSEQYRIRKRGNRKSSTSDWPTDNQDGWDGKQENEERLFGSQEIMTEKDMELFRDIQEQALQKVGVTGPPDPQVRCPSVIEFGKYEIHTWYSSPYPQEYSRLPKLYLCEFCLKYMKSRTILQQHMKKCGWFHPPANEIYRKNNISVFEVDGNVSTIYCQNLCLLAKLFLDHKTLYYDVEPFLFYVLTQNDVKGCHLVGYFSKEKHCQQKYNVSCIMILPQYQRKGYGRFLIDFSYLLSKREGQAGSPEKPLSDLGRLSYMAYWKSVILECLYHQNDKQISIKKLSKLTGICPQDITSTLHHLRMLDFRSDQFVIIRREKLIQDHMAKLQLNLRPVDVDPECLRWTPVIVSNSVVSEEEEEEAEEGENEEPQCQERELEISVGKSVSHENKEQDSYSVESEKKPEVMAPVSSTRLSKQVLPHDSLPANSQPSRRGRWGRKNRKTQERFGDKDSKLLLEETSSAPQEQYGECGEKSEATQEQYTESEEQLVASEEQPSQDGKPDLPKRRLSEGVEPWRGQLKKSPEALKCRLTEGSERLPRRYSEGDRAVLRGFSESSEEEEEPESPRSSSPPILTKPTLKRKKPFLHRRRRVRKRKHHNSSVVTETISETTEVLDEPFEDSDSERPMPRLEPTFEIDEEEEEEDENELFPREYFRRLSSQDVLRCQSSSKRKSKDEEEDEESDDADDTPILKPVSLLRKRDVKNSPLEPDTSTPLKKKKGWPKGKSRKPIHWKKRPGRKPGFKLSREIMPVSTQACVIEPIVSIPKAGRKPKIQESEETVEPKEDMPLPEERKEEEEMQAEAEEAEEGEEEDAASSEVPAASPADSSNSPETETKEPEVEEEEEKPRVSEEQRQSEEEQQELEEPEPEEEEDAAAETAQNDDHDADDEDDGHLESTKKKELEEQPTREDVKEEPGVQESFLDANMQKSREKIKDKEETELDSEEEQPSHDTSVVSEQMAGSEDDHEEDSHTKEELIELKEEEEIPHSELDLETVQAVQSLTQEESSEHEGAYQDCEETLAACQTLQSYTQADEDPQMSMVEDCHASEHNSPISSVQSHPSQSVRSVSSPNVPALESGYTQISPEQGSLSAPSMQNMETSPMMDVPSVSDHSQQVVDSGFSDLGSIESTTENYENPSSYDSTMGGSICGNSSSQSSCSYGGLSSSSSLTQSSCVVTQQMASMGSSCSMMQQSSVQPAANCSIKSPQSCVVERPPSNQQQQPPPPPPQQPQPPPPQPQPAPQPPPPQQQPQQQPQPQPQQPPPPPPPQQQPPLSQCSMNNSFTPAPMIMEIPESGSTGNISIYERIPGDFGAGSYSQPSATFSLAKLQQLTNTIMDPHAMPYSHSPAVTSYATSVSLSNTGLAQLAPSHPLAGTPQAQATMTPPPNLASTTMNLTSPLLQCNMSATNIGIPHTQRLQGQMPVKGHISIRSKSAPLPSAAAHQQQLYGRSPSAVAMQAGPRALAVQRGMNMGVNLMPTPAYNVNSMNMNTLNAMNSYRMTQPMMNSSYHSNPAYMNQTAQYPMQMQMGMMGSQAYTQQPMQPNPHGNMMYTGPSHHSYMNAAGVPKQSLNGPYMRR
KAT7, sequence (O95251 whole entry): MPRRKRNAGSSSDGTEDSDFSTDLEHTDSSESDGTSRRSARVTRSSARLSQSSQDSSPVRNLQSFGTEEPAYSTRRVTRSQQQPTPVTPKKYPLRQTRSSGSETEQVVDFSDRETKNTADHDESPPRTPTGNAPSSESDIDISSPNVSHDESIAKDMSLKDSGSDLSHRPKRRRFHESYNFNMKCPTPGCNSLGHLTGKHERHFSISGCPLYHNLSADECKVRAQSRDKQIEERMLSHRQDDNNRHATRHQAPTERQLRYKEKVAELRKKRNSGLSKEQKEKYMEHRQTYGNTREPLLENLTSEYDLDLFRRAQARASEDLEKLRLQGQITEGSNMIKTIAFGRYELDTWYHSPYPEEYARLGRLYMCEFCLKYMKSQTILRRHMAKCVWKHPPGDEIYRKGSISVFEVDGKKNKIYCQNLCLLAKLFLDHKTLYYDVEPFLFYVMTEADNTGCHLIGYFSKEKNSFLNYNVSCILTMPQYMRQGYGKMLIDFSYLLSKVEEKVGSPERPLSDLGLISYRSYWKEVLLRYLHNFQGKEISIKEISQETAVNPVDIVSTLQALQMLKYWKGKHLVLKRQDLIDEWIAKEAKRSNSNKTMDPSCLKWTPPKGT

SMILES | Ki [1, 3] | Ki ([2]; KAT7 Ki at 1 μM AcCoA) | Ki [1, 4] | Ki [1, 5] | Ki [2, 6] | Ki [1, 7]
COc1cccc(OC)c1S(=O)(=O)Nc1noc2cc(C(O)c3ncco3)cc(OC)c12 (single isomer, unassigned) [Example 108, N-{6-[(S*)-hydroxy(1,3-oxazol-2-yl)methyl]-4-methoxy-1,2-benzoxazol-3-yl}-2,6-dimethoxybenzenesulfonamide] | 72 nM | 1300 nM | – | – | – | –
COc1cccc(OC)c1S(=O)(=O)Nc1noc2cc(C(O)c3ncco3)cc(OC)c12 (single isomer, unassigned) [Example 109, N-{6-[(R*)-hydroxy(1,3-oxazol-2-yl)methyl]-4-methoxy-1,2-benzoxazol-3-yl}-2,6-dimethoxybenzenesulfonamide] | 44 nM | 3100 nM | – | – | – | –
COc1cccc(OC)c1S(=O)(=O)Nc1noc2cc(C(O)c3ccon3)cc(OC)c12 (single isomer, unassigned) [Example 112] | 82 nM | 1500 nM | – | – | – | –
COc1cccc(OC)c1S(=O)(=O)Nc1noc2cc(C(O)c3ccon3)cc(OC)c12 (single isomer, unassigned) [Example 113] | 14 nM | 2800 nM | – | – | – | –
COc1cccc(OC)c1S(=O)(=O)Nc1noc2cc(C(O)c3ncccn3)cc(OC)c12 (single isomer, unassigned) [Example 115] | 1220 nM | > 15000 nM | – | – | – | –
COc1cccc(OC)c1S(=O)(=O)Nc1noc2cc(C(O)c3cc[nH]n3)cc(OC)c12 (single isomer, unassigned) [Example 117] | 202 nM | 200 nM | – | – | – | –
COc1cccc(OC)c1S(=O)(=O)Nc1noc2cc(C(O)c3cc[nH]n3)cc(OC)c12 (single isomer, unassigned) [Example 118] | 357 nM | 2300 nM | – | – | – | –
COc1cccc(OC)c1S(=O)(=O)Nc1noc2cc(C(O)c3cnoc3)cc(OC)c12 (single isomer, unassigned) [Example 120] | 831 nM | 2400 nM | 212 nM | – | – | –
COc1cccc(OC)c1S(=O)(=O)Nc1noc2cc(C(O)c3cnoc3)cc(OC)c12 (single isomer, unassigned) [Example 121] | 1580 nM | > 15000 nM | > 600 nM | – | – | –
COc1cccc(OC)c1S(=O)(=O)Nc1noc2cc(C(O)c3cocn3)cc(OC)c12 (single isomer, unassigned) [Example 126] | 230 nM | 4150 nM | – | – | – | –
COc1cccc(OC)c1S(=O)(=O)Nc1noc2cc(Cn3ncc4ccccc43)cc(OC)c12 [Example 30] | – | – | – | 60 nM | 1100 nM | –
COc1cccc(OC)c1S(=O)(=O)Nc1noc2cc(Cn3cccn3)cc(Cl)c12 [Example 33] | – | – | – | 3.1 nM | 310 nM | –
COc1ccc(S(=O)(=O)Nc2noc3cc(Cn4cccn4)ccc23)c(OC)c1 [Example 35] | – | – | – | 15 nM | 420 nM | –
COc1ccc(Cl)cc1S(=O)(=O)Nc1noc2cc(Cn3cccn3)ccc12 [Example 36] | – | – | – | 17 nM | 980 nM | –
COCc1ccc(OC)c(S(=O)(=O)Nc2noc3cc(Cn4cccn4)ccc23)c1 [Example 37] | – | – | – | 17 nM | 4600 nM | –
COc1cc(C)ccc1S(=O)(=O)Nc1noc2cc(Cn3cccn3)ccc12 [Example 38] | – | – | – | 16 nM | 530 nM | –
CCOc1cc2c(NS(=O)(=O)c3c(OC)cccc3OC)noc2cc1Cn1cccn1 [Example 40] | – | – | – | 0.47 nM | 380 nM | –
COc1cc2c(cc1S(=O)(=O)Nc1noc3cc(Cn4cccn4)cc(OC)c13)CCOC2 [Example 43] | – | – | – | 3.6 nM | 570 nM | –
COc1cc(Cn2cccn2)cc2onc(NS(=O)(=O)c3ccc(C(F)(F)F)cc3)c12 [Example 46] | – | – | – | 32.9 nM | 1030 nM | 13.1 nM
COc1cc(Cn2cccn2)cc2onc(NS(=O)(=O)c3cc(C)cc(C)c3)c12 [Example 48] | – | – | – | 14.9 nM | 410 nM | 6.51 nM
COc1cc(Cn2cccn2)cc2onc(NS(=O)(=O)c3cc(F)ccc3C)c12 [Example 49] | – | – | – | 9.77 nM | 370 nM | 4.14 nM
COc1cc(Cn2cccn2)cc2onc(NS(=O)(=O)c3ccccc3C(F)(F)F)c12 [Example 52] | – | – | – | 14.6 nM | 660 nM | 7.32 nM
COc1cc(Cn2cccn2)cc2onc(NS(=O)(=O)c3cccc(C(F)(F)F)c3)c12 [Example 53] | – | – | – | 16.1 nM | 300 nM | 8.78 nM
COc1cc(Cn2cccn2)cc2onc(NS(=O)(=O)c3cccc(F)c3F)c12 [Example 54] | – | – | – | 57 nM | 1160 nM | 38 nM
COC(=O)c1cccc(C)c1S(=O)(=O)Nc1noc2cc(Cn3cccn3)cc(OC)c12 [Example 55] | – | – | – | 291 nM | 15000 nM | 178 nM
COc1cc(Cn2cccn2)cc2onc(NS(=O)(=O)c3cccc(F)c3C)c12 [Example 56] | – | – | – | 14.9 nM | 600 nM | 7.31 nM

SMILES | Ki [1, 3] | Ki ([2]; KAT7 Ki at 1 μM AcCoA) | Ki [1, 4] | Ki [1, 5] | Ki [2, 6] | Ki [1, 7]
COc1cc(Cn2cccn2)cc2onc(NS(=O)(=O)c3cc(F)cc(F)c3)c12 [Example 57] | – | – | – | 16 nM | 450 nM | –
COc1cc(Cn2cccn2)cc2onc(NS(=O)(=O)c3cc(C)ccc3F)c12 [Example 58] | – | – | – | 11.1 nM | 860 nM | 5.23 nM
COc1cccc(S(=O)(=O)Nc2noc3cc(Cn4cccn4)cc(OC)c23)c1 [Example 59] | – | – | – | 13 nM | 220 nM | 6.25 nM
COc1cc(Cn2cccn2)cc2onc(NS(=O)(=O)c3ccc(OC4CC4)cc3)c12 [Example 60] | – | – | – | 9.81 nM | 420 nM | 4.64 nM
COc1cc(Cn2cccn2)cc2onc(NS(=O)(=O)c3c(F)cc(C)cc3F)c12 [Example 62] | – | – | – | 9.64 nM | 360 nM | 3.9 nM
COc1cc(Cn2cccn2)cc2onc(NS(=O)(=O)c3cccc(F)c3Cl)c12 [Example 63] | – | – | – | 15.8 nM | 940 nM | 10.9 nM
COc1cc(Cn2cccn2)cc2onc(NS(=O)(=O)c3cc(F)c(F)c(F)c3)c12 [Example 64] | – | – | – | 25.3 nM | 630 nM | 11 nM
CNC(=O)c1ccc(S(=O)(=O)Nc2noc3cc(Cn4cccn4)cc(OC)c23)cc1 [Example 66] | – | – | – | 95.4 nM | 4050 nM | 65.6 nM
COCc1ccccc1S(=O)(=O)Nc1noc2cc(Cn3cccn3)cc(OC)c12 [Example 67] | – | – | – | 20 nM | 1760 nM | 10.2 nM
COc1cc(Cn2cccn2)cc2onc(NS(=O)(=O)c3cc(F)c(Cl)cc3F)c12 [Example 68] | – | – | – | 14.9 nM | 250 nM | 10.5 nM
CCOc1ccc(S(=O)(=O)Nc2noc3cc(Cn4cccn4)cc(OC)c23)cc1 [Example 69] | – | – | – | – | 370 nM | 9.1 nM
COC(=O)c1c(C)cccc1S(=O)(=O)Nc1noc2cc(Cn3cccn3)cc(OC)c12 [Example 74] | – | – | – | 24.8 nM | 2870 nM | 13.6 nM
COc1cc(OC)cc(S(=O)(=O)Nc2noc3cc(Cn4cccn4)cc(OC)c23)c1 [Example 80] | – | – | – | 15.6 nM | 360 nM | 5.32 nM
CCc1nc2cc(S(=O)(=O)Nc3noc4cc(Cn5cccn5)cc(OC)c34)ccc2o1 [Example 81] | – | – | – | 18.2 nM | 1620 nM | 9.96 nM
COc1cc(S(=O)(=O)Nc2noc3cc(Cn4cccn4)cc(OC)c23)ccc1F [Example 82] | – | – | – | 16.9 nM | 640 nM | 12.2 nM
COc1ccc(O)c(S(=O)(=O)Nc2noc3cc(Cn4cccn4)cc(OC)c23)c1 [Example 83] | – | – | – | 13.7 nM | 780 nM | 7.76 nM
COc1ccc(S(=O)(=O)Nc2noc3cc(Cn4cccn4)cc(OC)c23)c(C)c1F [Example 85] | – | – | – | 13.3 nM | 1140 nM | 8.77 nM
COc1cc(Cn2cccn2)cc2onc(NS(=O)(=O)c3cc(F)c(F)cc3F)c12 [Example 86] | – | – | – | 28.9 nM | 370 nM | 7.11 nM
COc1ccc(O)c(OC)c1S(=O)(=O)Nc1noc2cc(Cn3cccn3)cc(OC)c12 [Example 103, 3-hydroxy-2,6-dimethoxy-N-{4-methoxy-6-[(1H-pyrazol-1-yl)methyl]-1,2-benzoxazol-3-yl}benzene-1-sulfonamide] | – | – | – | 0.3 nM | 150 nM | 0.51 nM
COc1cccc(O)c1S(=O)(=O)Nc1noc2cc(Cn3cccn3)cc(OC)c12 [Example 104, 2-hydroxy-6-methoxy-N-{4-methoxy-6-[(1H-pyrazol-1-yl)methyl]-1,2-benzoxazol-3-yl}benzene-1-sulfonamide] | – | – | – | 6.11 nM | 2060 nM | 3.89 nM
COc1cccc(OC)c1S(=O)(=O)Nc1noc2cc(Cn3cc(O)cn3)cc(OC)c12 [Example 105, N-{6-[(4-hydroxy-1H-pyrazol-1-yl)methyl]-4-methoxy-1,2-benzoxazol-3-yl}-2,6-dimethoxybenzene-1-sulfonamide] | – | – | – | 3.08 nM | 230 nM | 6.28 nM
COc1cccc(OC)c1S(=O)(=O)Nc1noc2cc(C(O)c3ccccn3)cc(OC)c12 (stereo not drawn) [Example 106, N-{6-[hydroxy(pyridin-2-yl)methyl]-4-methoxy-1,2-benzoxazol-3-yl}-2,6-dimethoxybenzenesulfonamide] | – | – | – | 35 nM | 1900 nM | –
COc1cccc(OC)c1S(=O)(=O)Nc1noc2cc(Cc3cnccn3)cc(OC)c12 [Example 111, 2,6-dimethoxy-N-[4-methoxy-6-(pyrazin-2-ylmethyl)-1,2-benzoxazol-3-yl]benzenesulfonamide] | – | – | – | 13 nM | 390 nM | –
COc1cccc(OC)c1S(=O)(=O)Nc1noc2cc(Cc3cc[nH]n3)cc(OC)c12 [Example 119] | – | – | – | 21 nM | 650 nM | 13 nM
COc1cccc(OC)c1S(=O)(=O)Nc1noc2cc(Cc3cnoc3)cc(OC)c12 [Example 122] | – | – | – | 164 nM | 7400 nM | 25 nM
COc1cccc(OC)c1S(=O)(=O)Nc1noc2cc(C(O)c3cnccn3)cc(OC)c12 (stereo not drawn) [Example 123] | – | – | – | 138 nM | 4600 nM | –
